# Laboratory results from paper PMC9523135, “Apamin structure and pharmacology revisited” (Frontiers in Pharmacology, 2022).
# Read-outs that look alike come from different tables or passages of the source.
# What was measured:
# E. faecalis = experiment: Antimicrobial assay, microtitre broth dilution, E. faecalis; type: cell-based, Enterococcus faecalis ATCC 29212; conditions: lowest concentration causing 100% growth inhibition; 24 h, 37°C; n = 5
# Description: Apamin was tested against Gram-positive (Enterococcus faecalis ATCC 29212, Staphylococcus aureus subsp. aureus ATCC 29213) and Gram-negative bacteria (Escherichia coli ATCC 25922, Pseudomonas aeruginosa ATCC 27853) following the previously described modification of the microtitre broth dilution method ([Vassilevski et al., 2010]). Those bacterial strains were also subjected to the treatment by melittin in the same concentration range to serve as a positive control.
# Briefly, bacteria were cultured in a low-salt LB medium. The two-fold microtitre broth dilution assay was carried out in 96-well sterile plates in a final volume of 100 μL. Mid-exponential-phase cultures were diluted to a final concentration of 10^5 colony-forming units·ml^−1. Pure peptides were dissolved in 10 μL of water and added to 90 μL of the bacterial dilution. The samples, a non-treated control and a sterility control were tested in five independent experiments (n = 5). The microtitre plates were incubated for 24 h at 37°C, and growth inhibition was determined by measuring the absorbance at 620 nm. Minimum inhibitory concentration (MIC) is expressed as the lowest concentration of peptide that caused 100% bacterial growth inhibition.
# KCa3.1 = experiment: Patch-clamp, HEK293 cells expressing hKCa3.1 (IK); type: cell-based, human; conditions: 1 µM TRAM-34
# Description: (§1) HEK293 cells stably expressing hKCa1.1 (BK, GenBank accession number: NM_002247), hKCa2.1 (SK1, NM_002248), and hKCa3.1 (IK, AH009923) or COS7 cells stably expressing hKCa2.3 (SK3, AJ251016) were generated and cultured as previously described ([Sankaranarayanan et al., 2009]). HEK293 cells stably expressing rKCa2.2 (SK2, NM_019314) were a gift from Dr. Mio Zhang (Chapman University, Irvine).
# (§2) All experiments were conducted with an EPC-10 amplifier (HEKA) in the whole-cell configuration with a holding potential of –80 mV. Pipette resistances averaged around 2.5 MΩ. […] Free Ca^2+ concentrations were calculated with MaxChelator (developed by Chris Patton, Stanford University) assuming a temperature of 25°C, pH 7.2, and ionic strength of 160 mM. […] Please note that the provided concentrations are what was weighed in to achieve an initially hyperosmolar solution that was diluted with water to 310 mOsm for the internal and 315 mOsm for the external solution as measured with a VAPRO Vapor pressure osmometer (Wescor). […]
# (§3) KCa2 and KCa3.1 currents were elicited by 200-ms voltage ramps from –120 to 40 mV applied every 10 s, and the fold decrease of slope conductance at –80 mV was taken as a measure of apamin-induced channel inhibition. […] KCa1.1 channel activity was recorded with a step protocol, in which cells were stepped to +40 mV for 100 ms at 30-s intervals. […]
# KCa2.2 = conditions: cited from earlier work
# Excerpt: (§4) According to the Kalium database (https://kaliumdb.org) ([Kuzmenkov et al., 2016]; [Tabakmakher et al., 2019]), six of these substances were identified in scorpion venom (AmP05, maurotoxin, Pi-1, scyllatoxin, tamapin, and Ts9). […] Intere ...
# KCa2 = conditions: Kalium database; ref Kuzmenkov et al., 2016; Tabakmakher et al., 2019; cited from earlier work
# Excerpt: as §4
# KCa2.1 = molecular target: T1, KCa2.1 (Homo sapiens, UniProt Q92952); experiment: Patch-clamp, HEK293 cells expressing hKCa2.1 (SK1); type: cell-based; conditions: voltage ramps –120 to 40 mV, slope conductance at –80 mV, 1 μM free Ca^2+ internal; Hill fit, n ≥ 5; 95% CI 3.3–5.0 nM
# T1 construct: expressed in transfected cells
# T1 sequence (Q92952 whole entry): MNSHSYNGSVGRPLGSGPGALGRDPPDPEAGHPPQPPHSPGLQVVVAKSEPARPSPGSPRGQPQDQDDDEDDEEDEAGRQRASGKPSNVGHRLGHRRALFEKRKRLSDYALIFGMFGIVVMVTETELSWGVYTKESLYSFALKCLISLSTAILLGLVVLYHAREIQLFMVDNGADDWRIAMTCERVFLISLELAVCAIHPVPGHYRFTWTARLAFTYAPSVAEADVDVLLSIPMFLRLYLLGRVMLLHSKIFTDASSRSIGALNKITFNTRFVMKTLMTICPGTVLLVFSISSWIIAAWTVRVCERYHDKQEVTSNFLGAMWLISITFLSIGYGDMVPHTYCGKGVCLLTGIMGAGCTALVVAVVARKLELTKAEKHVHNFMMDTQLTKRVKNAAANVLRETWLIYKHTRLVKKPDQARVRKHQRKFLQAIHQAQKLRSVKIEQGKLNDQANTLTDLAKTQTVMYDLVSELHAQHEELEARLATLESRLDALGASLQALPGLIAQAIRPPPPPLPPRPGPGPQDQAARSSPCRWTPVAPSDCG
# Description: as §1, §2, §3
# KV11.1 = experiment: Two-electrode voltage-clamp, X. laevis oocytes, hKV11.1 (hERG); type: cell-based, human; design: key to effect on current: N.E.: no effect at 5 μM concentration; conditions: 5 μM apamin, n = 5
# Description: Linearized plasmids bearing the ion channel genes were transcribed using the mMESSAGE mMACHINE SP6 or T7 transcription kits (Ambion) to prepare the respective cRNA. The harvesting of stage V–VI oocytes from anaesthetized female X. laevis frogs was described previously ([Liman et al., 1992]; [Peigneur et al., 2021]). Oocytes were injected with 50 nL of cRNA at a concentration of 1 ng nl^−1 using a microinjector (Drummond Scientific). The oocytes were incubated at 16°C in ND96 solution containing (in mM): NaCl, 96; KCl, 2; CaCl2, 1.8; MgCl2, 2; and HEPES, 5 (pH 7.4), supplemented with 50 mg l^−1 gentamicin sulfate.
# Recordings were performed at room temperature (18°C–22°C) using a Geneclamp 500 amplifier (Molecular Devices) controlled by a pClamp data acquisition system (Axon Instruments). Whole-cell currents from oocytes were recorded 1–4 days after cRNA injection. Bath solution composition was ND96, or HK containing (in mM): NaCl, 2; KCl, 96; CaCl2, 1.8; MgCl2, 2; and HEPES, 5 (pH 7.4). Voltage and current electrodes were filled with 3 M KCl. […]
# Currents were evoked by a 100 ms (NaV) or 500 ms (KV) depolarization to the voltage corresponding to the maximal activation of the channels in control conditions from a holding potential of −90 mV. […] TRP currents were measured in ND96 at −90 mV during 400 s. […] Peak current amplitude was measured prior to and following the application of the peptide. […]
# mice = conditions: cited from earlier work
# Excerpt: The symptoms are apparently of central origin because the toxicity increases by a factor of 1,000–10,000 and the progression of poisoning is faster in case of i.c.v. injection, but the clinical picture stays the same ([Habermann, 1977], [Habermann, 1984]).
molecule,measurement,setting,value
CC[C@H](C)[C@H](NC(=O)CN)C(=O)NCC(=O)N[C@@H](C)C(=O)N[C@H](C(=O)N[C@@H](CC(C)C)C(=O)N[C@@H](CCCCN)C(=O)N[C@H](C(=O)N[C@@H](CC(C)C)C(=O)N[C@H](C(=O)N[C@H](C(=O)NCC(=O)N[C@@H](CC(C)C)C(=O)N1CCC[C@H]1C(=O)N[C@@H](C)C(=O)N[C@@H](CC(C)C)C(=O)N[C@H](C(=O)N[C@@H](CO)C(=O)N[C@@H](Cc1c[nH]c2ccccc12)C(=O)N[C@H](C(=O)N[C@@H](CCCCN)C(=O)N[C@@H](CCCNC(=N)N)C(=O)N[C@@H](CCCCN)C(=O)N[C@@H](CCCNC(=N)N)C(=O)N[C@@H](CCC(N)=O)C(=O)N[C@@H](CCC(N)=O)C(N)=O)[C@@H](C)CC)[C@@H](C)CC)[C@@H](C)O)[C@@H](C)O)C(C)C)C(C)C [Melittin],MIC,E. faecalis,0.5 µM
Clc1ccccc1C(c1ccccc1)(c1ccccc1)n1cccn1 [TRAM-34],block of KCa3.1 currents,KCa3.1,potently blocked
"scyllatoxin: scorpion toxin from Leiurus quinquestriatus hebraeus (AFCNLRMCQLSCRSLGLLGKCIGDKCECVKH; UniProt P16341 1-31, looked up)",IC50 range in words,"KCa2.2; ref Shakkottai et al., 2001",subnanomolar range
same,affinity on KCa2,KCa2,high (nanomolar) affinity
"tamapin: scorpion toxin from Mesobuthus tamulus (AFCNLRRCELSCRSLGLLGKCIGEECKCVPY; UniProt P59869 1-31, looked up)",IC50 range in words,"KCa2.2; ref Pedarzani et al., 2002",subnanomolar range
same,affinity on KCa2,KCa2,high (nanomolar) affinity
CC(C)C[C@@H]1NC(=O)[C@H](C)NC(=O)[C@H]([C@@H](C)O)NC(=O)[C@H](CCC(=O)O)NC(=O)[C@@H]2CCCN2C(=O)[C@H](C)NC(=O)[C@H](CCCCN)NC(=O)[C@@H]2CSSC[C@@H](C(=O)N[C@@H](CCC(N)=O)C(=O)N[C@@H](CCC(N)=O)C(=O)N[C@@H](Cc3cnc[nH]3)C(N)=O)NC(=O)[C@H](CCCNC(=N)N)NC(=O)[C@H](CCCNC(=N)N)NC(=O)[C@H](C)NC(=O)[C@H](CSSC[C@H](N)C(=O)N[C@@H](CC(N)=O)C(=O)N2)NC1=O [apamin],IC50,KCa2.1,4.1 nM
same,current ratio (Iapamin/Icontrol),KV11.1; mean ± SD,1.07 ± 0.06
same,effect on current,KV11.1,N.E.
same,factor of toxicity increase on i.c.v. injection,"mice; i.c.v. compared with i.v., ref Habermann, 1977, 1984","1,000–10,000"
same,LD50,"mice; i.v., ref Habermann and Reiz, 1965, 1972",≈ 4 mg kg^−1
same,symptoms when injected into mice,"mice; ref Habermann and Reiz, 1965, 1972","muscle spasms, jerks, and convulsions"
"maurotoxin (VSCTGSKDCYAPCRKQTGCPNAKCINKSCKCYGC; UniProt P80719 1-34, looked up)",affinity on KCa2,KCa2,high (nanomolar) affinity
